# Source: patent US20230131339A1, “EPI-X4 BASED PEPTIDES AND DERIVATIVES THEREOF” (Universitaet Ulm, priority 2020, published 2023)
# Legend:
# [1] = Stability assay in human S9 liver fractions; conditions: 2 hours, with cofactors
# Description: Further, the stability of peptides in human S9 liver fractions (in the presence of cofactors) was tested (FIG. 12). […] To simulate and predict hepatic metabolic clearance, peptides were added to human S9 liver fractions. […] For each peptide, three independent experiments were performed.
# Stability assay in human S9 liver fractions. Pooled human liver S9 fractions were obtained from Thermo Fisher Scientific at a total protein concentration of 20 mg/ml. Fractions were stored in 25 μl aliquots at −80° C. For stability experiments, they were diluted to a final concentration of 0.5 mg/ml in Tris buffer. Cofactors (or buffer) were added immediately before start of the experiment (NADPH: 1 mM, UDPGA: 0.5 mM, GSH: 2.5 mM, PAPS: 0.05 mg/ml, Sigma Aldrich). The reaction was started by adding peptides or compounds at a concentration of 20 μM to the mixture and gentle agitation at 37° C. Determination of enzymatic stability was performed as described for plasma.
# [2] = system: WM cells; test: Migration of WM cells along a CXCL12 gradient; format: cell-based; conditions: with or without S338X mutation
# Source text: (§1) Experimental data support the efficiency of the claimed peptide derivatives against the diseases mentioned above. At the example of JM #21 (SEQ ID NO.: 23) it could be shown that the peptides counteract growth and migration in vitro and in vivo of Acute Myeloid Leukemia (AML) cells as well as primary patient material and Waldenström's Macroglobulinemia (WM) cells harboring different WHIM-like CXCR4 mutations. This was accompanied by intrinsic changes suppressing oncogenic MAP kinase signaling of AML and WM cells.
# [3] = system: CXCL12-induced ERK phosphorylation of CXCR4 mutant WM cells; test: CXCL12-induced ERK phosphorylation of CXCR4 mutant WM cells; format: cell-based
# Source text: as §1
# [4] = system: CXCL12 induced Ca2+-signalling; test: Ca++ signaling in BCR-ABL-transformed murine bone marrow cells; format: cell-based; conditions: 1 μM
# Description: Fifth, it was shown that the peptide derivatives inhibit calcium-signaling. CXCL12 stimulation of CXCR4 expressing B-cells leads to a strong calcium-release. In the presence of CXCR4 antagonists this response is reduced.
# For calcium measurement, 1×10^6 BCR-ABL-transformed murine bone marrow cells were incubated with 5 μg/mL of Indo-1 (Molecular Probes) and 0.5 μg/mL of pluronic F-127 (Molecular Probes) in Iscove's medium supplemented with 1% FCS (Pan Biotech) at 37° C. for 45 min. Cells were then washed by centrifugation and the cell pellets were resuspended in Iscove's medium with 1% FCS and treated with the EPI-X4 derivatives (1 μM or 0.5 μM) for 10 minutes at room temperature. Cells were pre-warmed for 5 minutes at 37° C. Calcium flux was assessed by FACS measurement at BD LSR Fortessa. After 30 seconds of baseline recording, CXCR4-dependent calcium signaling was determined by stimulating with 100 ng/ml of mouse SDF-1a (PeproTech).
# [5] = system: CXCL12 induced migration of T-cells; test: Migration assay (transwell, Jurkat cells); format: cell-based
# [6] = system: primary CXCR4 AML patient samples; test: Engraftment of primary AML patient samples in NSG mice; format: in vivo
# Source text: as §1
# [7] = system: CXCR4-tropic X4-HIV-1 (NL4-3); format: cell-based; conditions: compared to EPI-X4
# Description: The activity of the peptides was estimated by different assays.
# The X4-HIV inhibition assay is designed to measure the activity of the inventive peptides by their efficiency of blocking the infection of tissue culture cells by CXCR4-tropic HIV-1 variants.
# HIV-1 inhibition assay. […] For infection of TZM-bl cells in presence of inhibitors, cells were seeded at a density of 1×10^5 cells/ml in 70 μl DMEM containing 2.5% FCS. Compounds were diluted in PBS and 10 μl were added. After 15 minutes of incubation cells were inoculated with 20 μl of diluted virus. Infection rates were determined three days later using Gal-Screen system (Applied Biosystems).
# [8] = system: CXCL12-induced ERK signaling; test: ERK/AKT signaling assay in SupT1 cells: ERK phosphorylation; format: cell-based; conditions: 1 μM
# Outline: (§2)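 SupT1 cells in 1% FCS medium preincubated 15 min at 37 °C with compound, then stimulated 2 min with CXCL12 (100 ng/ml final). PFA-fixed, methanol-permeabilized cells stained for phospho-ERK1/2 (Tyr204/Tyr187) or phospho-AKT (Ser473) and read by flow cytometry; two or three independent experiments in triplicate.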
# [9] = system: CXCL12-induced AKT signaling; test: ERK/AKT signaling assay in SupT1 cells: AKT phosphorylation; format: cell-based
# Outline: as §2
# [10] = biological target: T1, CXCR4 12G5 epitope of AML cells (Homo sapiens, UniProt P61073); test: Blocking of the CXCR4 12G5 epitope of AML cells; format: binding
# T1 construct: endogenous in cells
# T1 sequence (P61073 whole entry): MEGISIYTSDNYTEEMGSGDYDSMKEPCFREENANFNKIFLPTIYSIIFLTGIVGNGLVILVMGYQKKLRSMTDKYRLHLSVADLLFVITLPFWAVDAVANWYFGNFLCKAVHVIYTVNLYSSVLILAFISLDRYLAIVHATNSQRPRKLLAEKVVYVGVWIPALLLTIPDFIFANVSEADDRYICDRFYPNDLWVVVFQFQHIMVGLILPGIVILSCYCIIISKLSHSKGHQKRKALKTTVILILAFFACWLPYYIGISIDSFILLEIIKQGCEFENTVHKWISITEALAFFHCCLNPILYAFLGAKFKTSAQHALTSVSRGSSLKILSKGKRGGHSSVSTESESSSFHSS
# Source text: as §1
# [11] = system: CXCL12-induced ERK phosphorylation of AML cells; test: CXCL12-induced ERK phosphorylation of AML cells; format: cell-based
# Source text: as §1
# [12] = system: AML cells; test: Migration of AML cells along a CXCL12 gradient; format: cell-based
# Source text: as §1
# [13] = biological target: T2, CXCR4 (Homo sapiens, UniProt P61073); test: Antibody competition assay (12G5-assay) on SupT1 cells; format: binding
# T2 construct: endogenous in cells; host or cells: SupT1 cells
# T2 sequence (P61073 whole entry): as above
# Description: Second, the activity was tested by an antibody competition assay (FIG. 2). Values determined by the competition assay represent the potency of a compound to compete with an antibody that specifically binds to the binding pocket (ECL2) of CXCR4. […] To the right of the diagrams, an assignment of the curves to the tested peptides is explained. […] Three independent experiments were carried out for each peptide in each assay. The error bars refer to the standard deviation.
# Antibody competition assay. Competition of compounds with antibody binding was performed on SupT1 cells. For that cells were washed in PBS containing 1% FCS and 50,000 cells were then seeded per well in a 96 V-well plate. Buffer was removed and plates were precooled at 4° C. Compounds were diluted in PBS and antibody (clone 12G5, APC labelled) was diluted in PBS containing 1% FCS. The antibody was used at a concentration closed to its determined Kd. 15 μl compounds were then added to the cells and 15 μl antibody immediately afterwards. Plates were incubated at 4° C. in the dark for 2 hours. Afterwards cells were washed twice with PBS containing 1% FCS and fixed with 2% PFA. Antibody binding was analyzed by flow cytometry (FACS CytoFLEX; Beckman Coulter®).
structure (smiles),measurement,setting,value
CC[C@H](C)[C@H](N)C(=O)N[C@@H](CC(C)C)C(=O)N[C@@H](CCCNC(=N)N)C(=O)N[C@@H](Cc1c[nH]c2ccccc12)C(=O)N[C@@H](CO)C(=O)N[C@@H](CCCNC(=N)N)C(=O)N[C@@H](CCCCN)C(=O)N[C@@H](CC(C)C)C(=O)N1CCC[C@H]1C(=O)N[C@@H](CS)C(=O)N[C@H](C(=O)N[C@@H](CO)C(=O)O)C(C)C [JM #21],remaining activity in human S9 liver fractions after 2 hours,[1],readily inactivated by liver enzymes
same,migration of WM cells along a CXCL12 gradient,[2],impaired migration of WM cells with or without S338X mutation along a CXCL12 gradient
same,CXCL12-induced ERK phosphorylation of CXCR4 mutant WM cells,[3],reduced CXCL12-induced ERK phosphorylation of CXCR4 mutant WM cells in a dose-dependent manner
same,reduction of CXCL12 induced calcium-signaling,[4],much stronger than the reduction seen for WSC02
same,inhibition of CXCL12 induced migration of T-cells (in words),[5],more effective than WSC02
same,engraftment potential of primary CXCR4 AML patient samples,[6],reduced engraftment potential of primary CXCR4 AML patient samples in NSG mice
same,fold more effective inhibition of X4-HIV-1 than EPI-X4,[7],~100 fold
same,reduction of CXCL12-induced ERK signaling,[8],60%
same,reduction of CXCL12-induced AKT signaling,[9]; 1 μM,about 50%
same,reduction of CXCL12-induced AKT signaling,[9]; 10 μM,about 85%
same,blocking of CXCL12 induced signaling (in words),[9]; AKT and ERK,blocked signaling more effectively than WSC02
same,fold effectiveness in blocking AKT signaling relative to WSC02,[9]; compared to WSC02,about 10 fold
same,blocking of CXCR4 12G5 epitope of AML cells,[10],efficiently blocked the CXCR4 12G5 epitope of AML cells in a dose dependent manner
same,CXCL12-induced ERK phosphorylation of AML cells,[11],reduced CXCL12-induced ERK phosphorylation of AML cells
same,migration of AML cells along a CXCL12 gradient,[12],inhibited migration of AML cells along a CXCL12 gradient
same,antibody competition / binding to CXCR4 (in words),[13],more effective antibody competition
